Reference: publication PMC11367503, “Exploring galectin interactions with human milk oligosaccharides and blood group antigens identifies BGA6 as a functional galectin-4 ligand” (The Journal of Biological Chemistry, 2024)
Where “and” joins values, the source holds several entries; their conditions need not be identical. Equal entries are not always repeated.

Columns and labels:
Type in all cases: binding
human Gal-7 = molecular target: T1, human Gal-7 (Homo sapiens, UniProt P47929); test: Competitive solid-phase assay (SPA), immobilized asialofetuin, Gal-7; details: for IC50: competitive SPA, immobilized asialofetuin, mean ± S.D., three independent experiments; for affinity of Gal-7 weaker than that shown by Gal-1: SPA, Gal-7 versus Gal-1
T1 construct: made in house; host or cells: Escherichia coli BL21 (DE3)
T1 sequence (P47929 whole entry): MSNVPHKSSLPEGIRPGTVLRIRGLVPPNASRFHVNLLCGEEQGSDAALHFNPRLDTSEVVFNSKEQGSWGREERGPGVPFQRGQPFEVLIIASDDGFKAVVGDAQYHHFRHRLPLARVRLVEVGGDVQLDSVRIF
Protocol: (§1) The assay was adapted from Rapoport et al. (2010) ([88]). Briefly, 96-well plates (flat-bottom) were coated with 10 μg/ml asialofetuin (ASF, Sigma-Aldrich) in sodium carbonate buffer (pH 9.6) and incubated overnight at 4 °C. Then, wells were washed three times with 100 μl/well PBS-Tween 0.05% (w/v) and blocked with 100 μl/well PBS-bovine serum albumin (BSA) 2% (1 h, room temperature (RT)) in a humid chamber. Meanwhile, equal volumes of human recombinant Gal-1, -3, -4, -7, and -12 (20–40 μg/ml) in PBS-BSA 0.3% buffer were preincubated with the corresponding inhibitors in serial dilutions (2 h, 37 °C). After washing, galectins were detected using the corresponding antigalectin primary detection antibodies in PBS-BSA 0.3% w/v (1 h at RT). For Gal-1, wells were incubated with an in-house purified 100 ng/ml biotinylated rabbit anti–human Gal-1 polyclonal immunoglobulin G. For Gal-3, -4, and -7, a 1:500 dilution of the corresponding biotinylated anti-human galectin antibodies was used (BAF1154, BAF1227, and MAB13391, respectively, R&D Systems). For Gal-12, a rabbit anti-human Gal-12 polyclonal antibody (Santa Cruz Biotechnology, 1:700) was used. For Gal-1, -3, -4, and -7, plates were rinsed three times before adding 0.33 μg/ml horseradish peroxidase (HRP)-labeled streptavidin (Sigma-Aldrich) for 30 min. For Gal-12, an anti-rabbit secondary antibody conjugate coupled to HRP was incubated for 1 h at RT in PBS-BSA 0.3% w/v. After washing, 100 μl TMB solution (0.1 mg/ml tetramethylbenzidine and 0.06% H2O2 in citrate-phosphate buffer, pH 5.0) was added to plates. The reaction was stopped by adding a 2N H2SO4 solution. Absorbance was determined at 450 nm in a Multiskan MS microplate reader (Thermo Fisher Scientific).

human Gal-12 = molecular target: T2, human Gal-12 (Homo sapiens, UniProt Q96DT0); test: Competitive solid-phase assay (SPA), immobilized asialofetuin, Gal-12; details: mean ± S.D., three independent experiments
T2 construct: To obtain full-length human Gal-12, we adapted our previously optimized procedure for murine Gal-12; made in house; host or cells: Escherichia coli Rosetta 2 (DE3)
T2 sequence (Q96DT0 1-336): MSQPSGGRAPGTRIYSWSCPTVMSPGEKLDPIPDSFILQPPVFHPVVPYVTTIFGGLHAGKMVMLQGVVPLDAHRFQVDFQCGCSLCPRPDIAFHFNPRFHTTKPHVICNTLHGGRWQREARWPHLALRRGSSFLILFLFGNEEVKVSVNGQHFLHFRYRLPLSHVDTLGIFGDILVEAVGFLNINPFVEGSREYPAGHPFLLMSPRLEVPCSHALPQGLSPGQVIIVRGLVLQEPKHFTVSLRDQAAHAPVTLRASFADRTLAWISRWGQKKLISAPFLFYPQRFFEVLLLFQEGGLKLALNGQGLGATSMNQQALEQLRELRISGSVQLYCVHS
Protocol: as §1

human Gal-1 [1] = molecular target: T3, human Gal-1 (Homo sapiens, UniProt P09382); test: Competitive solid-phase assay (SPA), immobilized asialofetuin, Gal-1; details: mean ± S.D., three independent experiments
T3 construct: made in house; host or cells: Escherichia coli BL21 (DE3)
T3 sequence (P09382 whole entry): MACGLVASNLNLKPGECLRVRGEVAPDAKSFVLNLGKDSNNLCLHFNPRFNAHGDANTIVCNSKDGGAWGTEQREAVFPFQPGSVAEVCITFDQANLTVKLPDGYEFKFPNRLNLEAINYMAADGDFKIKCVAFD
Protocol: as §1

human Gal-3 [2] = molecular target: T4, human Gal-3 (Homo sapiens, UniProt P17931); test: Competitive solid-phase assay (SPA), immobilized asialofetuin, Gal-3; details: mean ± S.D., three independent experiments
T4 construct: made in house; host or cells: Escherichia coli BL21 (DE3)
T4 sequence (P17931 whole entry): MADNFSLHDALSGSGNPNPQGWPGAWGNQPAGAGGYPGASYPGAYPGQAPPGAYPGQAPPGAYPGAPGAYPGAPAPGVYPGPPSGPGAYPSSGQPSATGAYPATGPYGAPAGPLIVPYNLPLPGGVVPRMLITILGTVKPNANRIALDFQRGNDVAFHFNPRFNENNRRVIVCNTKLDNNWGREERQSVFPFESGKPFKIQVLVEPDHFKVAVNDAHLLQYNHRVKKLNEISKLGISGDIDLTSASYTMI
Protocol: as §1

human Gal-4 [3] = molecular target: T5, human Gal-4 (Homo sapiens, UniProt P56470); test: Competitive solid-phase assay (SPA), immobilized asialofetuin, Gal-4; details: mean ± S.D., three independent experiments
T5 construct: His6-SUMO (N, cleaved yes); made in house; host or cells: Escherichia coli BL21 (DE3)
T5 sequence (P56470 1-323): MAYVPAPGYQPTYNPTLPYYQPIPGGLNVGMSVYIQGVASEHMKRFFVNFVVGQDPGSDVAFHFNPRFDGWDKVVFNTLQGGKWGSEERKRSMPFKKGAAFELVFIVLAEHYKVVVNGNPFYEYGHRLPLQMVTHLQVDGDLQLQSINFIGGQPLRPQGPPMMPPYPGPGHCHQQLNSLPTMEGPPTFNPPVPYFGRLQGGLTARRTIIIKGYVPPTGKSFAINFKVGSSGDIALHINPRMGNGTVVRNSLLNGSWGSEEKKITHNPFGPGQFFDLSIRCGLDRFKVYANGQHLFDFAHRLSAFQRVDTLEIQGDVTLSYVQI
Protocol: as §1

human Gal-1 [4] = molecular target: T3, human Gal-1; test: Isothermal titration calorimetry (ITC), Gal-1; details: Gal-1, PBS, 298 K; for Kd: n fixed to 1.00
Protocol: (§2) All ITC experiments were performed by using a NanoITC (TA Instruments) under previously optimized conditions ([89]). A typical titration involved 20 injections at 300 s intervals of 2.5 μl aliquots of a 2.5 to 10 mM ligand solution into the sample cell (volume 200 μl) containing the different galectins (30–100 μM). The solutions were prepared by dissolving the glycan ligands in degassed PBS buffer at 298 K. The titration cell was continuously stirred at 300 rev/min. The heats of dilution of the ligands in the buffer were subtracted from the titration data. […] Fitting was performed using the Nano Analyze software (TA Instruments; https://www.tainstruments.com/itcrun-dscrun-nanoanalyze-software/) to determine association constants (Ka) and the enthalpy change (ΔH). No reliable fit of the thermodynamic parameters could be obtained for binding affinities above 80 μM.

human Gal-3 [5] = molecular target: T4, human Gal-3; test: Isothermal titration calorimetry (ITC), Gal-3; details: Gal-3, PBS, 298 K; for Kd: n fixed to 1.00
Protocol: as §2

human Gal-4 [6] = molecular target: T5, human Gal-4; test: Isothermal titration calorimetry (ITC), Gal-4; details: Gal-4, PBS, 298 K, n fixed to 1.00
Protocol: as §2

Row | SMILES | IC50 (human Gal-7) [mM] | IC50 (human Gal-12) [mM] | IC50 (human Gal-1 [1]) | IC50 (human Gal-3 [2]) | IC50 (human Gal-4 [3]) [mM] | affinity of Gal-7 weaker than that shown by Gal-1 (human Gal-7) | -TΔS (human Gal-1 [4]) [kcal/mol] | ΔH (human Gal-1 [4]) [kcal/mol] | Kd (human Gal-1 [4]) [mM] | -TΔS (human Gal-3 [5]) [kcal/mol] | ΔH (human Gal-3 [5]) [kcal/mol] | Kd (human Gal-3 [5]) [mM] | Kd (human Gal-4 [6]) [mM]
1 | CC(=O)NC1C(O)CC(OCC2OC(OC3C(CO)OC(O)C(O)C3O)C(O)C(O)C2O)(C(=O)O)OC1C(O)C(O)CO (centres unmarked) [6’-SL, 6′-sialyllactose] | 9.5 ± 0.3 | 53.3 ± 2 | – | – | – | – | – | – | – | – | – | – | –
2 | CC1OC(OC2C(OC3C(CO)OC(O)C(O)C3OC3OC(C)C(O)C(O)C3O)OC(CO)C(O)C2O)C(O)C(O)C1O (centres unmarked) [DFL, 2′,3-difucosyllactose] | 18.4 ± 0.3 | 4.5 ± 0.6 | 11.9 mM | 9.1 ± 0.9 mM | 14.5 ± 0.7 | – | – | – | – | – | – | – | –
3 | CC(=O)NC1C(O)CC(OC2C(O)C(CO)OC(OC3C(O)C(CO)OC(OC4C(O)C(CO)OC(OC5C(CO)OC(O)C(O)C5O)C4O)C3NC(C)=O)C2O)(C(=O)O)OC1C(O)C(O)CO (centres unmarked) [LSTa, sialyl-lacto-N-tetraose a] | 4.3 ± 0.9 | 9.2 ± 1 | 1.8 ± 0.1 mM | 7.8 ± 0.8 mM | – | – | – | – | – | – | – | – | –
4 | CC(=O)NC1C(OC2C(O)C(CO)OC(OC3C(CO)OC(O)C(O)C3OC3OC(C)C(O)C(O)C3O)C2O)OC(CO)C(OC2OC(CO)C(O)C(O)C2O)C1OC1OC(C)C(O)C(O)C1O (centres unmarked) [DFH, 3,3-difucosylhexaose (Lewis X hexaose)] | 9.2 ± 0.2 | 5.6 ± 0.8 | 9.7 mM and 9.73 mM | 10.5 ± 0.7 mM | 13.8 ± 3 | – | – | – | – | – | – | – | –
5 | CC(=O)NC1C(OC2C(O)C(CO)OC(OC3C(CO)OC(O)C(O)C3OC3OC(C)C(O)C(O)C3O)C2O)OC(CO)C(O)C1OC1OC(CO)C(O)C(O)C1O (centres unmarked) [LNFP V, lacto-N-fucopentaose V] | 7.2 ± 0.3 | 8.9 ± 1 | 2.6 mM and 2.61 mM | 2.7 ± 0.5 mM | 25.1 ± 0.5 | – | – | – | – | – | – | – | –
6 | CC1OC(OC2C(OC3C(CO)OC(O)C(O)C3O)OC(CO)C(O)C2O)C(O)C(O)C1O (centres unmarked) [2’-FL, 2′-fucosyllactose] | 8.3 ± 0.5 | 63.5 ± 0.8 | 1.2 mM and 1.23 mM | 4.2 ± 0.3 mM | 1.5 ± 0.6 | – | – | – | – | – | – | – | 0.13 ± 0.009
7 | CC(=O)NC1C(OC2C(O)C(CO)OC(OC3C(CO)OC(O)C(O)C3OC3OC(C)C(O)C(O)C3O)C2O)OC(CO)C(OC2OC(C)C(O)C(O)C2O)C1OC1OC(CO)C(O)C(O)C1O (centres unmarked) [LAH, Lewis A antigen hexaose] | 22.2 ± 0.8 | 51.1 ± 5 | – | 9.3 ± 0.6 mM | 30.4 ± 2 | – | – | – | – | – | – | – | –
8 | CC(=O)NC1C(OC2C(O)C(CO)OC(OC3C(CO)OC(O)C(O)C3O)C2O)OC(CO)C(OC2OC(CO)C(O)C(O)C2O)C1O (centres unmarked) [LNnT, lacto-N-neotetraose] | 3.3 | 29.3 ± 6 | 0.5 ± 0.1 mM | ~1.8 mM and 1.8 mM | 25.2 | ca. 5 fold | -3.51 ± 0.19 | -2.15 ± 0.22 | 0.072 ± 0.008 | – | – | 0.095 ± 0.009 | –

The next molecules have a lower IC50 (human Gal-7) than those just listed; values first:

Row | IC50 (human Gal-7) [mM] | IC50 (human Gal-12) [mM] | IC50 (human Gal-1 [1]) | IC50 (human Gal-3 [2]) | IC50 (human Gal-4 [3]) [mM] | affinity of Gal-7 weaker than that shown by Gal-1 (human Gal-7) | -TΔS (human Gal-1 [4]) [kcal/mol] | ΔH (human Gal-1 [4]) [kcal/mol] | Kd (human Gal-1 [4]) [mM] | -TΔS (human Gal-3 [5]) [kcal/mol] | ΔH (human Gal-3 [5]) [kcal/mol] | Kd (human Gal-3 [5]) [mM] | Kd (human Gal-4 [6]) [mM] | SMILES
9 | 2.2 | 9.8 ± 1 | 2.2 ± 0.04 mM | 4.8 ± 0.3 mM | – | – | – | – | – | – | – | – | – | CC(=O)NC1C(O)OC(CO)C(OC2OC(CO)C(O)C(OC3(C(=O)O)CC(O)C(NC(C)=O)C(C(O)C(O)CO)O3)C2O)C1O (centres unmarked) [3’-SLacNAc, 3’-sialyl-N-acetyllactosamine]
10 | 3 ± 0.6 | 82.1 ± 0.8 | – | – | 23.1 | – | – | – | – | – | – | – | – | OC[C@H]1O[C@@H](O[C@H]2[C@H](O)[C@@H](O)C(O)O[C@@H]2CO)[C@H](O)[C@@H](O)[C@H]1O (mixture of isomers) [Lac, lactose]
11 | 2.1 ± 0.8 | 28.1 ± 5 | 0.6 ± 0.1 mM | 0.5 ± 0.9 mM | 21.5 | ca. 5 fold | -2.61 ± 0 | -3.04 ± 0.48 | 0.073 ± 0.007 | -5.02 ± 0.48 | -1.1 ± 0.096 | 0.04 ± 0.003 | – | CC(=O)NC1C(OC2C(O)C(CO)OC(OC3C(CO)OC(OC4C(O)C(CO)OC(OC5C(CO)OC(OC6C(O)C(CO)OC(OC7C(CO)OC(O)C(O)C7O)C6O)C(NC(C)=O)C5O)C4O)C(NC(C)=O)C3O)C2O)OC(CO)C(OC2OC(CO)C(O)C(O)C2O)C1O (centres unmarked) [LNnO, lacto-N-neooctaose]
12 | 2.5 ± 0.8 | 30.3 ± 9 | 6.2 mM and 6.19 mM | 1.2 ± 0.5 mM | 0.2 ± 0.1 | – | – | – | – | – | – | – | – | CC(=O)NC1C(OC2C(O)C(CO)OC(OC3C(O)C(CO)OC(O)C3NC(C)=O)C2OC2OC(C)C(O)C(O)C2O)OC(CO)C(O)C1O (centres unmarked) [BGA1, blood group A antigen 1]
